Experimental data as given in patent US20120129152A1, “Diagnostic method for the prediction of the development of and control over the effectiveness of treatment of cardiovascular illnesses” (priority 2010, published 2012).

Assays:
Assay type in all cases: in vivo, human
[1] = Hemodynamic indicators (tetrapolar rheography) of treated patient; details: Example 1, after Valacyclovir with Nitrosorbidum and Corinfar
[2] = Clinical condition of treated patient with ischemic heart disease
HSV-1 = assay: IIF of patients' blood immunocytes: cells infected with herpes type 1 virus
Excerpt: […]

Epstein-Barr virus = assay: IIF of patients' blood immunocytes: cells infected with Epstein-Barr virus
Protocol: (§1) The task set is addressed through a diagnostic method for the prediction of the development and control of the effectiveness of the treatment of cardiovascular, in which patient tissue samples are taken (immunocytes and erythrocytes from venous and capillary blood, smears and prints from atherosclerotic plaques after surgical intervention, and cells from urinary and salivary sediment), microdrugs are prepared, specific anti-viral immunoglobulins are processed (for types 1 and 2 herpes viruses, the cytomegalovirus, the herpes Zoster virus, the Epstein-Barr virus, the herpes 6 virus, or the combinations thereof), the number of cells infected by two or more viruses before the beginning of treatment, during treatment, and after treatment are determined with the application of anti-viral therapy, and the dynamic of the change in the number of infected cells and their interrelationships are established: if the number of cells infected by two or more viruses, among which cytomegalovirus must be found, exceeds 50±10% in patients with cardiovascular disease, a diagnostic conclusion of the threat of atherosclerosis complications such as myocardial infarction and stroke, as well as of complications such as arrhythmia, thrombic embolisms, severe left ventricular failure, repeated myocardial infarction, cardiogenic shock, and a high possibility of a fatal result; the method can also be used in patients with cardiovascular diseases after treatment through a method of a combination of traditional methods and the use of anti-viral drugs and a change is seen in the percentage of infected cells after treatment if the number of cells infected by two or more viruses decreases by more than 20±10% in repeat diagnostics, the treatment is considered successful, whereas if a decrease by 20±10% in the number of cells infected by cytomegalovirus and any other aforementioned virus in repeat diagnostics is not seen, a conclusion is drawn on the ineffectiveness of the therapy applied in that period and the need to change the antiviral therapy scheme.

[3] = Blood serum lipid complex (lipidogram) of treated patients
[4] = Electrocardiogram indices of treated patient; details: Example 1, after Valacyclovir with Nitrosorbidum and Corinfar
cytomegalovirus = assay: IIF of patients' blood immunocytes: cells infected with cytomegalovirus
Protocol: as §1

[5] = Free-radical acidization of lipids, serum indicators of treated patient; details: Example 1, after Valacyclovir with Nitrosorbidum and Corinfar
[6] = Example 2, after Valacyclovir 3 courses of 7 days, before 50% of cells infected

SMILES: CC(C)[C@H](N)C(=O)OCCOCn1cnc2c(=O)[nH]c(N)nc21 [Valacyclovir]
- capacity of the left ventricle ([1]; before 2.02): 2.29 W
- energy loss ([1]; before 15.96): 10.37 conditional units
- specific peripheral resistance ([1]; before 74.53): 65.97 conditional units
- flow rate ([1]; before 126.5): 169.71 mL/s
- total peripheral vascular resistance ([1]; before 2917.9): 2673.6 dyn s cm^−5
- patient's condition ([2]; Example 1, within seven weeks, Valacyclovir with Nitrosorbidum and Corinfar): improved significantly
- angina pain and shortness of breath ([2]; Example 1, within seven weeks, Valacyclovir with Nitrosorbidum and Corinfar, nitroglycerine tablets not used): not present
- lipidogram, peroxide acidization of lipids, electrocardiography and tetrapolar rheography indicators ([2]; summary of the examples, standard treatment scheme combined with Valacyclovir): normalized
- immunocytes infected with HSV-1 (IIF) (HSV-1; Example 3, after Valacyclovir 5 courses of 7 days, before 70% of cells infected): 30%
- herpes type 1 virus antigens in immunocytes, repeat IIF study (HSV-1; Example 4, two months after combination therapy Valacyclovir with immunoglobulin and Laferobion, before 60% of cells infected): did not discover antigens
- blood immunocytes infected with EBV (IIF) (Epstein-Barr virus; Example 1, after Valacyclovir with Nitrosorbidum and Corinfar, before 70% of cells infected): 50%
- blood immunocytes infected with EBV (IIF) (Epstein-Barr virus; [6]): 10%
- Epstein-Barr virus antigens in immunocytes, repeat IIF study (Epstein-Barr virus; Example 4, two months after combination therapy Valacyclovir with immunoglobulin and Laferobion, before 50% of cells infected): did not discover antigens
- total cholesterol in blood serum ([3]; Example 1, patient one, after Valacyclovir 1.0 g three times a day with Nitrosorbidum and Corinfar, before 6.71): 3.26 mmol/L
- cholesterol/HDL ([3]; Example 1, after Valacyclovir with Nitrosorbidum and Corinfar, before 1.17): 1.20 mmol/L
- LDL ([3]; Example 1, after Valacyclovir with Nitrosorbidum and Corinfar, before 1.55): 0.47 mmol/L
- triglycerides in blood serum ([3]; Example 1, after Valacyclovir with Nitrosorbidum and Corinfar, before 3.4): 1.04 mmol/L
- cholesterol/LDL ([3]; Example 1, after Valacyclovir with Nitrosorbidum and Corinfar, before 3.99): 3.68 mmol/L
- atherogenesis index ([3]; Example 1, after Valacyclovir with Nitrosorbidum and Corinfar, before 4.74): 3.38
- b-lipoproteins in blood serum ([3]; Example 1, after Valacyclovir with Nitrosorbidum and Corinfar, before 770): 310 conditional units
- triglycerides ([3]; Example 2, after Valacyclovir 1.0 g 3×/day for 3 courses of 7 days, before 1.55): 1.3 mmol/L
- total cholesterol ([3]; Example 2, after Valacyclovir 1.0 g 3×/day for 3 courses of 7 days, before 4.9): 4.7 mmoles/1
- total cholesterol ([3]; Example 3, after Valacyclovir 1 g 3×/day for 5 courses of 7 days with 7-day intervals, before 5.6): 4.9 mmol/L
- triglycerides ([3]; Example 3, after Valacyclovir 1 g 3×/day for 5 courses of 7 days, before 2.55): 1.95 mmol/L
- triglycerides ([3]; Example 4, after combination therapy Valacyclovir with immunoglobulin and Laferobion, before 1.4): 1.3 mmoles/1
- total cholesterol ([3]; Example 4, after combination therapy: Valacyclovir 1.0 g 3 times a day, three courses of seven days, with immunoglobulin and Laferobion, before 3.9): 1.5 mmoles/1
- NST on the electrocardiogram ([4]; before 10.0): 0
- SST on the electrocardiogram ([4]; before 11.0): 0
- T index on the electrocardiogram ([4]; before 35.0): 0
- blood immunocytes infected with CMV (IIF) (cytomegalovirus; Example 1, after Valacyclovir with Nitrosorbidum and Corinfar, before 60% of cells infected): 20%
- CMV in the blood immunocytes (IIF) (cytomegalovirus; [6]): not present
- immunocytes infected with cytomegalovirus (IIF) (cytomegalovirus; Example 3, after Valacyclovir 5 courses of 7 days, before 50% of cells infected): 10%
- cytomegalovirus antigens in immunocytes, repeat IIF study (cytomegalovirus; Example 4, two months after combination therapy Valacyclovir with immunoglobulin and Laferobion, before 30% of cells infected): did not discover antigens
- triethynoid conjugates ([5]; before 0.23): 0.14 mcmol/ml
- serum malondialdehyde ([5]; before 0.50): 0.31 mcmol/ml
- diethynoid conjugates ([5]; before 1.332): 0.70 mcmol/ml
- a-tocopherol content ([5]; before 2.69): 4.32 mcmol/ml
- glutathione reductase activity ([5]; before 12.4): 22.0 mcmol/l h

SMILES: CCC(C)(C)C(=O)O[C@H]1C[C@@H](C)C=C2C=C[C@H](C)[C@H](CC[C@@H]3C[C@@H](O)CC(=O)O3)[C@H]21 [simvastatin]
- total cholesterol ([3]; Example 2, patient two, after six months of simvastatin 10 mg/day (with metoprolol, enalapril, aspirin), goal indicator 5.0 mmoles/l): 4.9 mmoles/1
- triglycerides ([3]; Example 2, after six months of simvastatin 10 mg/day): 1.55 mmol/L
- total cholesterol ([3]; Example 3, patient, after five months of simvastatin 10 mg/day (with metoprolol, aspirin), goal indicator 5.0 mmoles/l): 5.6 mmoles/1
- triglycerides ([3]; Example 3, after five months of simvastatin 10 mg/day): 2.55 mmol/L
- total cholesterol ([3]; Example 4, patient one, after six months of Zocor 20 mg/day (with Corvitol, Renitec, aspirin), goal indicator 4.0 mmoles/l): 3.9 mmoles/1
- triglycerides ([3]; Example 4, after six months of Zocor 20 mg/day): 1.4 mmol/L
